Source: US20050181509A1 (priority 2004, published 2005)

How the values were obtained:
[1] = tested on: F. oxysporum transformants generated using pBHt2-tk (ChGPD-HSVtk); assay type: cell-based, Fusarium oxysporum
[2] = tested on: Aspergillus fumigatus transformants generated using pBHt2-tk (ChGPD-HSVtk); assay type: cell-based
[3] = tested on: Botrytis cineria transformants generated using pBHt2-tk (ChGPD-HSVtk); assay type: cell-based
[4] = tested on: wild-type strain of B. cineria; assay type: cell-based, Botrytis cineria
[5] = tested on: F. oxysporum O-685 transformants; assay type: cell-based, Fusarium oxysporum
[6] = tested on: transformants of N. crassa that express HSVtk; conditions: HSVtk-expressing transformants; cited from earlier work
[7] = tested on: transformants of Cryptococcus neoformans that express HSVtk; conditions: HSVtk-expressing transformants; cited from earlier work

Row | Compound | sensitivity of transformants [1] | concentration required for significant growth inhibition [2] [µM] | sensitivity of transformants [2] | concentration sufficient to inhibit growth [3] [nM] | sensitivity of transformants [3] | sensitivity of wild-type strain [4] | reduction of the number of transformants relative to that generated in the presence of 0 or 5 μM F2dU [5] [fold] | sensitivity of transformants [6] | sensitivity of transformants [7] | concentration failing to inhibit growth [3] [mM]
1 | O=c1[nH]c(=O)n([C@H]2C[C@H](O)[C@@H](CO)O2)cc1F [F2dU, 5-fluoro-2′-deoxyuridine] | exhibited sensitivity | 50 | exhibited sensitivity | 5 | exhibited sensitivity | exhibited noticeable sensitivity | 2 to 4 | exhibited sensitivity | exhibited sensitivity | 
2 | Nc1nc(O)c2ncn(COC(CO)CO)c2n1 [Ganciclovir] | exhibited sensitivity |  | exhibited sensitivity |  |  |  |  |  |  | > 2
